The nature of data set [1]: pKa of LNP preparations via TNS assay. The format is physicochemical. The note with it: Table D; LNP formulation ratio 47.5:40:2.5:10. Here is the method: (§1) LNP preparations are formed by microfluidic mixing of the lipid and NA solutions using a Precision Nanosystems NanoAssemblr Ignite Instrument, according to the manufacturer's protocol. A 3:1 ratio of aqueous to organic solvent is maintained during mixing using differential flow rates. After mixing, LNP preparations are collected, diluted in PBS (approximately 2:1 v/v), and further buffer exchange is conducted using dialysis in PBS at 4° C. for 8 to 24 hours against a 20 kDa filter. After this initial dialysis, each individual LNP preparation is characterized via dynamic light scattering (DLS) to measure size and polydispersity. pKa of a subpopulation of LNP preparations is measured via TNS assay. After dialysis, LNP preparations are sterile filtered using 0.22 micron sterile filter and stored at 4° C. for further use. In some embodiments, LNP preparations may be concentrated using 100 kDa Amicon filters per manufacturer's protocol.

In the next data set the test system is PCSK9 target site. Nature of the data set: In vivo base editing with LNP-delivered ABE mRNA and sgRNA targeting PCSK9. As to conditions: Balb/c mice, IV tail vein, 0.03 mg/kg total RNA, 4 days after dosing. Here is the method: Lipid nanoparticle components are dissolved in 100% ethanol at specified lipid component molar ratios. mRNA encoding an adenine base editor and a chemically-modified sgRNA is dissolved at a mass ratio of 1:1 in 10 mM citrate, 100 mM NaCl, pH 4.0, resulting in a concentration of NA cargo of approximately 0.22 mg/mL. LNP preparations are formulated with molar ratios of either 50% Ionizable Lipid:38.5% Cholesterol:1.5% PEG2000-DMG: 10% DSPC or 47.5% Ionizable Lipid:40% Cholesterol:2.5% PEG2000-DMG: 10% DSPC both at a total lipid to NA molar ratio of 6.
as §1
Male Balb/C mice aged approximately 8-12 weeks are used in the experiments described herein. Each mouse is temporarily restrained, and LNP preparations are administered IV via tail vein injection. Age-matched mice are also used to administer vehicle (1×PBS) via tail vein injection as a control. […]
For base editing, mRNA encoding an adenine base editor (ABE) and a guide RNA (sgRNA) targeting PCSK9 at 1:1 (mass ratio) are coencapsulated in LNP preparations as described herein. […] Base editing is determined by performing targeted deep sequencing analysis at the PCSK9 target site using extracted genomic DNA.

Data set [2] in a line: Dynamic light scattering (DLS) of LNP preparations: size (diameter) and polydispersity. The format is physicochemical. The note with it: Table D; LNP formulation ratio 47.5:40:2.5:10, ABE mRNA + PCSK9 sgRNA 1:1. The procedure: A ratio of aqueous to organic solvent of approximately 2:1 or 3:1 was maintained during mixing using differential flow rates. After mixing, LNP preparations were collected, diluted in phosphate buffer saline (PBS) or Tris-buffered saline (TBS) (approximately 1:1 v/v). Further buffer exchange was conducted using dialysis in PBS or TBS at 4° C. for 4 to 24 hours against a 20 kDa filter. After this initial dialysis, each individual LNP preparation may be characterized via dynamic light scattering (DLS) to measure the size (e.g., diameter) and polydispersity. LNP preparations falling within specific diameter and polydispersity ranges were pooled, and further dialyzed against PBS or TBS at 4° C. for 1 to 4 hours against a 100 kDa dialysis cassette. After the second dialysis, LNP preparations were sterile filtered using 0.22 μm filter and stored at 4° C. for further use.
as §1
DLS-LNP preparation hydrodynamic diameter and polydispersity index (PDI) is measured using high throughput dynamic light scattering (DLS) (DynaPro plate reader II, Wyatt). LNP preparations are diluted 1×PBS to an appropriate concentration and analyzed.

Data set [3] in a line: Encapsulation efficiency of LNP preparations (unlysed and lysed LNPs). The format is physicochemical. The note with it: Table D; LNP formulation ratio 47.5:40:2.5:10, ABE mRNA + PCSK9 sgRNA 1:1. Here is the method:
Concentration of NA is determined by Qubit microRNA kit (for siRNA) or HS RNA kit (for mRNA) per manufacturer's instructions. Encapsulation efficiency is determined by measuring unlysed and lysed LNPs.

The structures appear in SMILES notation.

In general, pKa refers to the pH at which an ionisable group is half protonated. With `C=CC(C)(CCC=C(C)CCC=C(C)C)OC(=O)CCCCCC(=O)OCC(COC(=O)CCCCCC(=O)OC(C)(C=C)CCC=C(C)CCC=C(C)C)COC(=O)CCC(CCCCCC)OC(=O)NCCN1CCCC1` (stereo not drawn) [Example 13, 1-{2-[({7-oxo-7-[(3,7,11-trimethyldodeca-1,6,10-trien-3-yl)oxy]heptanoyl}oxy)methyl]-3-{[4-({[2-(pyrrolidin-1-yl)ethyl]carbamoyl}oxy)decanoyl]oxy}propyl}7-(3,7,11-trimethyldodeca-1,6,10-trien-3-yl) heptanedioate], the pKa in data set [1] turned out to be 6.72. For the same compound, the “Liver Editing A->G (%)” value in the data set with PCSK9 target site was determined as 1.2%. The “Diameter (nm)” value in data set [2] came to 73.3 nm. Also, the “EE (%)” value in data set [3] is 96.1%.

Turning to `CCCCCCC(CCC(=O)OCC(COC(=O)CCCCCC(=O)OCC=C(C)CCCC(C)CCCC(C)CCCC(C)C)COC(=O)CCCCCC(=O)OCC=C(C)CCCC(C)CCCC(C)CCCC(C)C)OC(=O)NCCN1CCCC1` (stereo not drawn) [Example 15, 1-{2-[({7-oxo-7-[(3,7,11,15-tetramethylhexadec-2-en-1-yl)oxy]heptanoyl}oxy)methyl]-3-{[4-({[2-(pyrrolidin-1-yl)ethyl]carbamoyl}oxy)decanoyl]oxy}propyl}7-(3,7,11,15-tetramethylhexadec-2-en-1-yl) heptanedioate], the pKa in data set [1] amounted to 6.32. The “Liver Editing A->G (%)” value in the data set with PCSK9 target site was 15.7%. Further, the “Diameter (nm)” value in data set [2] amounted to 74.1 nm. For the same compound, in data set [3], the “EE (%)” value is listed as 98.5%.

For `CCCCCCC(CCC(=O)OCC(COC(=O)CCCCCC(=O)OCC=C(C)CCC=C(C)CCC=C(C)C)COC(=O)CCCCCC(=O)OCC=C(C)CCC=C(C)CCC=C(C)C)OC(=O)NCCN1CCCC1` (stereo not drawn) [Example 14, 1-{2-[({7-oxo-7-[(3,7,11-trimethyldodeca-2,6,10-trien-1-yl)oxy]heptanoyl}oxy)methyl]-3-{[4-({[2-(pyrrolidin-1-yl)ethyl]carbamoyl}oxy)decanoyl]oxy}propyl}7-(3,7,11-trimethyldodeca-2,6,10-trien-1-yl) heptanedioate], in data set [1], the pKa amounted to 6.78. Moreover, the “Liver Editing A->G (%)” value with PCSK9 target site was determined as 23.6%. The “Diameter (nm)” value in data set [2] is 77.15 nm. Moreover, the “EE (%)” value in data set [3] amounted to 97.7%.
